One data set deals with intracellular HBV DNA. Briefly: Real-time PCR for intracellular HBV DNA in HepAD38 cells. Type of data set: cell-based. The settings on record: Hepatitis B virus, HePAD38, 65 h, 65 hours treatment.
Data set [1] in a line: Cell viability assay (EZ-Cytox), cytotoxicity. In kind it is cell-based. Particulars: human, HepAD38 cells; for viability at 65 h, 100 µM: read-out: Cytotoxicity % Livability (@100 μM). As to the method: HepAD38 cells were cultured for 2 days in Dulbecco's Modified Eagle's medium (Welgene, LM001-05) supplemented with 10% FBS without tetracycline. […] After 65 hours of treatment, viability was measured using EZ-Cytox cell viability assay kit (Daeil Lab Service) according to the manufacturer's instructions. The absorbance was measured at 450 nm using a spectrophotometer (Spark, Tecan).

`COc1ncc(N(Cc2cc(C(F)(F)F)[nH]n2)C(=O)Nc2cccc(C#N)c2)cn1` [Example 144, 3-(3-cyanophenyl)-1-(2-methoxypyrimidin-5-yl)-1-((5-(trifluoromethyl)-1H-pyrazol-3-yl)methyl)urea] had an IC50 with intracellular HBV DNA of 220 nM. For the same compound, in data set [1], the CC50 at 65 h worked out at 59900 nM and the viability at 65 h, 100 µM worked out at 6.3%.
`CS(=O)(=O)Nc1ccc(N(Cc2n[nH]c3c2CCCO3)C(=O)Nc2ccc(F)c(Cl)c2)cc1` [Example 19, N-(4-(3-(3-chloro-4-fluorophenyl)-1-((1,4,5,6-tetrahydropyrano[2,3-c]pyrazol-3-yl)methyl)ureido)phenyl)methanesulfonamide] returned an IC50 in the data set on intracellular HBV DNA above 1100 nM. For the same compound, the CC50 at 65 h in data set [1] is above 100000 nM.
Consider `COc1ncc(N(Cc2cc(C(F)(F)F)[nH]n2)C(=O)Nc2cc(C)c(F)c(Cl)n2)cn1` [Example 142, 3-(6-chloro-5-fluoro-4-methylpyridin-2-yl)-1-(2-methoxypyrimidin-5-yl)-1-((5-(trifluoromethyl)-1H-pyrazol-3-yl)methyl)urea], for which the IC50 in the data set with intracellular HBV DNA is 100 nM. In data set [1], the midpoint of cytotoxicity, the CC50 at 65 h, lay at 46900 nM and the viability at 65 h, 100 µM came out at 21%.
On to `COc1ccc(N(Cc2nn(CCOC3CCCCO3)c3c2CCC3)C(=O)Nc2ccc(F)c(Cl)c2)cn1` (stereo not shown) [Example 66, 3-(3-chloro-4-fluorophenyl)-1-(6-methoxypyridin-3-yl)-1-((1-(2-(tetrahydro-2H-pyran-2-yloxy)ethyl)-1,4,5,6-tetrahydrocyclopenta[c]pyrazol-3-yl)methyl)urea], for which the IC50 in the data set on intracellular HBV DNA was above 300 nM. This compound also displayed a CC50 at 65 h in data set [1] of 81900 nM.
Regarding `COC12CC(N(Cc3cc(C(F)(F)F)[nH]n3)C(=O)Nc3ccc(F)c(Cl)c3)(C1)C2` [Example 105, 3-(3-chloro-4-fluorophenyl)-1-(3-methoxybicyclo[1.1.1]pentan-1-yl)-1-((5-(trifluoromethyl)-1H-pyrazol-3-yl)methyl)urea], the IC50 with intracellular HBV DNA worked out at 34 nM. Besides, in data set [1], the midpoint of cytotoxicity, the CC50 at 65 h, lay at 55800 nM and the viability at 65 h, 100 µM came to 3.5%.
As to `COc1cc(C)c(N(Cc2cc(C(F)(F)F)[nH]n2)C(=O)Nc2ccc(F)c(Cl)c2)c(C)c1` [Example 29, 3-(3-chloro-4-fluorophenyl)-1-(4-methoxy-2,6-dimethylphenyl)-1-((5-(trifluoromethyl)-1H-pyrazol-3-yl)methyl)urea], the IC50 with intracellular HBV DNA is above 1100 nM. Further, in data set [1], the CC50 at 65 h came out at 12200 nM and the viability at 65 h, 100 µM stood at 6.9%.
For `COc1ncc(N(Cc2cc(C#N)[nH]n2)C(=O)Nc2cc(F)c(F)c(F)c2)cn1` [Example 223, 1-((5-cyano-1H-pyrazol-3-yl)methyl)-1-(2-methoxypyrimidin-5-yl)-3-(3,4,5-trifluorophenyl)urea], the IC50 with intracellular HBV DNA came to 70 nM. Besides, in data set [1], the CC50 at 65 h was above 100000 nM and the viability at 65 h, 100 µM was found to be 87.5%.
`COc1ncc(N(Cc2cc(C#N)[nH]n2)C(=O)Nc2ccc(C#N)c(C(F)F)c2)cn1` [Example 153, 1-((5-cyano-1H-pyrazol-3-yl)methyl)-3-(4-cyano-3-(difluoromethyl)phenyl)-1-(2-methoxypyrimidin-5-yl)urea]: the IC50 in the data set with intracellular HBV DNA was 210 nM. For the same compound, in data set [1], the CC50 at 65 h is above 100000 nM and the viability at 65 h, 100 µM amounted to 94.2%.
In the data set with intracellular HBV DNA, `CS(=O)(=O)Nc1ccc(N(Cc2n[nH]c3c2CCOC3)C(=O)Nc2ccc(F)c(Cl)c2)cn1` [Example 17, N-(5-(3-(3-chloro-4-fluorophenyl)-1-((1,4,5,7-tetrahydropyrano[3,4-c]pyrazol-3-yl)methyl)ureido)pyridin-2-yl)methanesulfonamide] showed an IC50 above 1100 nM. In addition, the CC50 at 65 h in data set [1] is above 100000 nM.
As for `COc1ncc(N(Cc2cc(C#N)[nH]n2)C(=O)Nc2ccc(C#N)c(Cl)c2)cn1` [Example 9], the IC50 with intracellular HBV DNA was determined as 310 nM. In data set [1], the CC50 at 65 h is above 100000 nM and the viability at 65 h, 100 µM stood at 105%.
For `Cc1cc(N(Cc2n[nH]c3c2CCCO3)C(=O)Nc2ccc(F)c(Cl)c2)no1` [Example 26, 3-(3-chloro-4-fluorophenyl)-1-(5-methylisoxazol-3-yl)-1-((1,4,5,6-tetrahydropyrano[2,3-c]pyrazol-3-yl)methyl)urea], in that order: above 1100 nM, above 100000 nM and 93%.
`COc1cc(N(Cc2n[nH]c3c2COCC3)C(=O)Nc2ccc(F)c(Cl)c2)ccn1` [Example 73, 3-(3-chloro-4-fluorophenyl)-1-(2-methoxypyridin-4-yl)-1-((1,4,6,7-tetrahydropyrano[4,3-c]pyrazol-3-yl)methyl)urea] had an IC50 with intracellular HBV DNA of 19 nM. In data set [1], the CC50 at 65 h is above 100000 nM and the viability at 65 h, 100 µM came out at 96.6%.
Turning to `COc1ncc(N(Cc2cc(C(F)(F)F)[nH]n2)C(=O)Nc2ccc(F)c(C(F)F)n2)cn1` [Example 202, 3-(6-(difluoromethyl)-5-fluoropyridin-2-yl)-1-(2-methoxypyrimidin-5-yl)-1-((5-(trifluoromethyl)-1H-pyrazol-3-yl)methyl)urea], 46 nM corresponded to half-maximal inhibition with intracellular HBV DNA (IC50). Moreover, in data set [1], the CC50 at 65 h was above 100000 nM and the viability at 65 h, 100 µM amounted to 82.3%.
As for `CCOCCc1c(CN(C(=O)Nc2ccc(F)cc2)c2ccc(OC)nc2)n[nH]c1C(F)(F)F` [Example 182, 1-((4-(2-ethoxyethyl)-5-(trifluoromethyl)-1H-pyrazol-3-yl)methyl)-3-(4-fluorophenyl)-1-(6-methoxypyridin-3-yl)urea], the half-maximal inhibitory concentration (IC50) in the data set with intracellular HBV DNA was above 1100 nM. In addition, in data set [1], the CC50 at 65 h is above 100000 nM and the viability at 65 h, 100 µM amounted to 104%.
With `COc1ncc(N(Cc2cc(C(F)(F)F)[nH]n2)C(=O)Nc2ccc(C#N)c(Cl)c2)cn1` [Example 7, 3-(3-chloro-4-cyanophenyl)-1-(2-methoxypyrimidin-5-yl)-1-((5-(trifluoromethyl)-1H-pyrazol-3-yl)methyl)urea], in the data set on intracellular HBV DNA, the IC50 came to 19 nM. In addition, in data set [1], the CC50 at 65 h was above 100000 nM and the viability at 65 h, 100 µM is 59.3%.
For `COc1cc(N(Cc2cc(C(F)(F)F)[nH]n2)C(=O)Nc2ccc(F)c(Cl)c2)cnn1` [Example 94, 3-(3-chloro-4-fluorophenyl)-1-(6-methoxypyridazin-4-yl)-1-((5-(trifluoromethyl)-1H-pyrazol-3-yl)methyl)urea], in that order: 260 nM, 64400 nM and 4.8%.
In the data set with intracellular HBV DNA, `COc1ncc(N(Cc2cc(C(F)(F)F)[nH]n2)C(=O)Nc2nccc(F)c2F)cn1` [Example 173, 3-(3,4-difluoropyridin-2-yl)-1-(2-methoxypyrimidin-5-yl)-1-((5-(trifluoromethyl)-1H-pyrazol-3-yl)methyl)urea] showed an IC50 above 1100 nM. Besides, in data set [1], the 50% cytotoxic concentration (CC50) at 65 h is above 100000 nM.
Regarding `COc1ncc(N(Cc2cc(C(F)F)[nH]n2)C(=O)Nc2cccc(C(F)F)c2)cn1` [Example 178, 1-((5-(difluoromethyl)-1H-pyrazol-3-yl)methyl)-3-(3-(difluoromethyl)phenyl)-1-(2-methoxypyrimidin-5-yl)urea], in the data set on intracellular HBV DNA, the IC50 amounted to 22 nM. Besides, in data set [1], the CC50 at 65 h was above 100000 nM and the viability at 65 h, 100 µM came out at 68.5%.
The compound `CCOC=Cc1c(CN(C(=O)Nc2ccc(F)c(Cl)c2)c2ccc(OC)nc2)n[nH]c1C(F)(F)F` [Example 83, 3-(3-chloro-4-fluorophenyl)-1-((4-(2-ethoxyvinyl)-5-(trifluoromethyl)-1H-pyrazol-3-yl)methyl)-1-(6-methoxypyridin-3-yl)urea] yielded an IC50 in the data set on intracellular HBV DNA above 1100 nM. In data set [1], the CC50 at 65 h was above 100000 nM and the viability at 65 h, 100 µM was determined as 95.1%.
In the data set with intracellular HBV DNA, `COc1ncc(N(Cc2cc(C(F)(F)F)[nH]n2)C(=O)Nc2ccc(C#N)c(C(F)F)c2)cn1` [Example 152, 3-(4-cyano-3-(difluoromethyl)phenyl)-1-(2-methoxypyrimidin-5-yl)-1-((5-(trifluoromethyl)-1H-pyrazol-3-yl)methyl)urea] showed an IC50 of 26 nM. Also, in data set [1], the CC50 at 65 h is above 100000 nM and the viability at 65 h, 100 µM was determined as 82.7%.
In the case of `CC(=O)c1ccc(N(Cc2n[nH]c3c2CCOC3)C(=O)Nc2ccc(F)c(Cl)c2)cn1` [Example 21, 1-(6-acetylpyridin-3-yl)-3-(3-chloro-4-fluorophenyl)-1-((1,4,5,7-tetrahydropyrano[3,4-c]pyrazol-3-yl)methyl)urea], the IC50 with intracellular HBV DNA was above 1100 nM. This compound yielded a CC50 at 65 h in data set [1] above 100000 nM.
With `COc1ncc(N(Cc2cc(C(F)(F)F)[nH]n2)C(=O)Nc2cc(F)c(F)c(F)n2)cn1` [Example 224, 1-(2-methoxypyrimidin-5-yl)-1-((5-(trifluoromethyl)-1H-pyrazol-3-yl)methyl)-3-(4,5,6-trifluoropyridin-2-yl)urea], the IC50 with intracellular HBV DNA stood at 210 nM. Moreover, in data set [1], the CC50 at 65 h is above 100000 nM and the viability at 65 h, 100 µM was determined as 100%.
With `N#Cc1cncc(N(Cc2n[nH]c3c2CCCO3)C(=O)Nc2ccc(F)c(Cl)c2)c1` [Example 120, 3-(3-chloro-4-fluorophenyl)-1-(5-cyanopyridin-3-yl)-1-((1,4,5,6-tetrahydropyrano[2,3-c]pyrazol-3-yl)methyl)urea], in the data set with intracellular HBV DNA, the IC50 is 95 nM. In data set [1], the CC50 at 65 h was above 100000 nM and the viability at 65 h, 100 µM worked out at 92%.
For `COc1ccc(N(Cc2cc(C(F)F)[nH]n2)C(=O)Nc2ccc(F)c(C(F)F)c2)nn1` [Example 195, 1-((5-(difluoromethyl)-1H-pyrazol-3-yl)methyl)-3-(3-(difluoromethyl)-4-fluorophenyl)-1-(6-methoxypyridazin-3-yl)urea], in that order: above 1100 nM, above 100000 nM and 100%.
The matching figures for `COc1ncc(N(Cc2cc(C(F)(F)F)[nH]n2)C(=O)Nc2ccc(C#N)c(F)c2)cn1` [Example 156, 3-(4-cyano-3-fluorophenyl)-1-(2-methoxypyrimidin-5-yl)-1-((5-(trifluoromethyl)-1H-pyrazol-3-yl)methyl)urea]: 83 nM, above 100000 nM and 107%.

Broadly, the IC50 is the point on the concentration scale where inhibition reaches its midpoint. Low readings indicate higher potency, high ones lower potency. By CC50 is commonly meant the concentration giving 50% cytotoxicity. Low readings indicate greater toxicity to the cells, high ones lower toxicity to the cells.

The record behind these values is US20250009742A1 (priority 2021, published 2025).
